Assay results: patent US9416181B2, “Compositions for cell culture and methods of using the same” (AbbVie Inc., priority 2013, dated 2016)

Key:
Format in all cases: cell-based, Chinese Hamster
[1] = test system: Cell Line 2 (CHO) expressing Antibody 2; assay: Cell culture performance, Cell Line 2 shake flask culture; conditions: shaker
Experimental: (§1) Four different recombinant Chinese Hamster Ovary (CHO) cell lines expressing four different recombinant glycoproteins were evaluated in either shaker flask culture, or 3 L laboratory scale bioreactors. Cell Line 1 was genetically engineered to express Antibody 1, Cell Line 2 was genetically engineered to express Antibody 2, Cell Line 3 was genetically engineered to express dual variable domain immunoglobulin 1 (DVD1) and Cell Line 4 was genetically engineered to express dual variable domain immunoglobulin 2 (DVD2).
DVD1 and DVD2 were immunoglobulins with two variable domains as documented previously. See Wu et al. (2007). Antibody 1 and Antibody 2 were both IgG1 glycoproteins. All four cell lines were of CHO DUX-B11 origin based on a dhfr (dihydrofolate reductase) expression system and cultured in chemically defined basal medias (CDBM), and fed periodically with chemically-defined feed media (CDFM). All media utilized throughout all of the experiments were chemically-defined, free of animal-component, and protein-free. […]
Viable cell density (VCD) and cell viability values were measured through trypan blue exclusion via Cedex automated cell counters (Roche Applied Science, Indianapolis, Ind.), glucose and lactate values were measured with a ABL-805 (Radiometer Medical, Denmark) blood gas analyzer. […] Osmolality was measured as needed on a Multi-Osmette 2430 osmometer (Precision Systems, Natick, Mass.).
Protein A Affinity Chromatography-Antibody titers were measured from crude cell culture harvests on a Poros ATM (Life Technologies, Carlsbad, Calif.) affinity column using an HPLC system operating with a low pH, step elution gradient with detection at 280 nm. […]
(§2) To further evaluate the impact of EGCG on acidic region variants, Antibody 2 and dual variable domain immunoglobulin 1 (DVD1) were examined. Antibody 2 was evaluated in a set of shaker and lab-scale bioreactor experiments with two feed amounts (100% and 50%) as unsupplemented control conditions. […]

[2] = test system: Cell Line 2 (CHO) expressing Antibody 2; assay: Acidic species variants (WCX-10) of Antibody 2, Cell Line 2 shake flask culture; conditions: 0.05 and 0.1 g/L; shaker
Experimental: as §1
Charge Heterogeneity via Weak Cation Exchange Chromatography-Samples were analyzed using an HPLC system equipped with a ProPac WCX-10 analytical column (Thermo Scientific, Sunnyvale, Calif.). Approximately 100 μg of sample was loaded in 6% Buffer B (10 mM sodium phosphate, 500 mM NaCl, pH 5.5) and 94% Buffer A (10 mM sodium phosphate, pH 7.5). The column was run at a flow rate of 1.0 mL/min. […] The protein peaks were measured using UV absorbance at 280 nm as the peaks eluted from the column. […]
as §2

[3] = test system: Cell Line 3 (CHO) expressing DVD1; assay: Acidic species variants (WCX-10) of DVD1, Cell Line 3 shake flask culture; conditions: shaker
Experimental: as §1
(§3) Charge Heterogeneity via Weak Cation Exchange Chromatography-Samples were analyzed using an HPLC system equipped with a ProPac WCX-10 analytical column (Thermo Scientific, Sunnyvale, Calif.). Approximately 100 μg of sample was loaded in 6% Buffer B (10 mM sodium phosphate, 500 mM NaCl, pH 5.5) and 94% Buffer A (10 mM sodium phosphate, pH 7.5). The column was run at a flow rate of 1.0 mL/min. The protein was eluted from the column by increasing the buffer B composition from 6% to 16% over 20 minutes. The protein peaks were measured using UV absorbance at 280 nm as the peaks eluted from the column. The column was regenerated using 100% buffer B followed be a re-equilibration period using initial condition before the injection of the next sample. Peaks eluting before the main peak were termed ‘acidic peaks’ and peaks eluting after the main peak were called ‘basic peaks’ (FIG. 2).
To assess the impact of EGCG on acidic region variants on recombinant proteins, dual variable domain immunoglobulin 1 (DVD1) was examined. EGCG was added at the concentrations of 0.02 g/L, 0.05 g/L, 0.1 g/L and 0.2 g/L into the feed in a shaker experiment (See Table 2). […] At the concentration of 0.2 g/L, EGCG led to 15% viability decrease and 28% productivity loss compared to control condition. Upon measurement of the acidic species variants, EGCG supplement reduced the total acidic species in a dose-dependent manner. At the concentrations of 0.02 g/L, 0.05 g/L, 0.1 g/L and 0.2 g/L respectively, EGCG reduced the total acidic species content 5%, 10%, 17% and 22% relatively compared to the unsupplemented control (FIG. 13D).

[4] = test system: Cell Line 2 (CHO) expressing Antibody 2; assay: Acidic species variants (WCX-10) of Antibody 2, Cell Line 2 lab-scale bioreactor culture; conditions: 0.1 g/L
Experimental: as §1
as §3, with “Peaks eluting before the main peak were termed ‘acidic peaks’ and peaks eluting after the main peak were called ‘basic peaks’ (FIG. 2).” left out

Compound: O=C(O[C@@H]1Cc2c(O)cc(O)cc2O[C@@H]1c1cc(O)c(O)c(O)c1)c1cc(O)c(O)c(O)c1 [EGCG, epigallocatechin gallate]
- impact on cell culture performance (cell growth, viability, titer) ([1]; 0.05 and 0.1 g/L in feed): no negative impact on cell culture performance
- fold of the average titer of the unsupplemented control conditions ([1]; 0.1 g/L in 100% feed): 1.22 fold
- fold of the average titer of the unsupplemented control conditions ([1]; equivalent of 0.1 g/L in 50% feed): 1.11 fold
- relative reduction of total acidic species content vs unsupplemented control [2]: 21%-45%
- relative reduction of total acidic species content vs unsupplemented control ([3]; 0.02 g/L in feed): 5%
- relative reduction of total acidic species content vs unsupplemented control ([3]; 0.05 g/L in feed): 10%
- relative reduction of total acidic species content vs unsupplemented control ([3]; 0.1 g/L in feed): 17%
- relative reduction of total acidic species content vs unsupplemented control ([3]; 0.2 g/L in feed): 22%
- relative reduction of total acidic variants content vs unsupplemented control [4]: 29%-36%
